From paper PMC8414367, “(E)-7-Ethylidene-lithocholic Acid (7-ELCA) Is a Potent Dual Farnesoid X Receptor (FXR) Antagonist and GPBAR1 Agonist Inhibiting FXR-Induced Gene Expression in Hepatocytes and Stimulating Glucagon-like Peptide-1 Secretion From Enteroendocrine Cells” (Frontiers in Pharmacology, 2021)

What was measured:
[1] = test system: GPBAR1 mRNA, NCI-H716 cells; experiment: GPBAR1 mRNA expression in differentiated NCI-H716 cells; format: cell-based, human; details: 10 µM, 2 h
Protocol: FIGURE 8 Effects of 7-alkylated derivatives of CDCA and 7-ELCA on the membrane receptor GPBAR1. […]. (B) CRE-luc activation depends on the presence of GPBAR1. (C) Effects of LCA and 7-ELCA (both at 10 µM) on intracellular generation of cAMP in differentiated NCI-H716 cells after 30 min treatment. The increase in cAMP level (ΔcAMP) is presented as the difference between cAMP concertation in the treated sample after subtraction of the cAMP in the nontreated control sample. (D) Concentration-response curves for activation of GPBAR1 by LCA and 7-ELCA. EC50 values were calculated using nonlinear fitting of concentration-response curves. […] (G) 7-ELCA (10 µM) increases GLP-1 secretion in siRNA control but not in siRNA Gpbar1 transfected GLUTag cells after 1 h treatment. GLP-1 was normalized to protein concentration and GPBAR1 mRNA expression to GAPDH mRNA. Data are presented as a fold to control nontreated (NT) samples. Forskolin (FSK, 10 µM) was used as a GPBAR1-independent activator of cAMP production.

[2] = target: constitutive androstane receptor (CAR) (Homo sapiens, UniProt Q14994, DEL233-236); experiment: Nuclear receptor specificity luciferase reporter assay in HepG2 cells
Sequence of constitutive androstane receptor (CAR) (Q14994 with tags, fused parts or gaps isoform Q14994-8 DEL233-236): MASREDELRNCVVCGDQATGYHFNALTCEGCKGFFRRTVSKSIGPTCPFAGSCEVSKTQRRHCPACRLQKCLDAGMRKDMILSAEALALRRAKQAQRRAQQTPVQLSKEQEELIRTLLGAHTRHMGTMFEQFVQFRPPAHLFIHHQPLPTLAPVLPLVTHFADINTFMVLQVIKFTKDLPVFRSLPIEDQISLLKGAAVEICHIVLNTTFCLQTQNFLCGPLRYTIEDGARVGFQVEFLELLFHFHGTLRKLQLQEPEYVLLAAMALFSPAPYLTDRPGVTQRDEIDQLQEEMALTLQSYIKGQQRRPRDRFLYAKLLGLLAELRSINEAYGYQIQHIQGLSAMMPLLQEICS
Sequence of constitutive androstane receptor (CAR) (P19793 whole entry partner): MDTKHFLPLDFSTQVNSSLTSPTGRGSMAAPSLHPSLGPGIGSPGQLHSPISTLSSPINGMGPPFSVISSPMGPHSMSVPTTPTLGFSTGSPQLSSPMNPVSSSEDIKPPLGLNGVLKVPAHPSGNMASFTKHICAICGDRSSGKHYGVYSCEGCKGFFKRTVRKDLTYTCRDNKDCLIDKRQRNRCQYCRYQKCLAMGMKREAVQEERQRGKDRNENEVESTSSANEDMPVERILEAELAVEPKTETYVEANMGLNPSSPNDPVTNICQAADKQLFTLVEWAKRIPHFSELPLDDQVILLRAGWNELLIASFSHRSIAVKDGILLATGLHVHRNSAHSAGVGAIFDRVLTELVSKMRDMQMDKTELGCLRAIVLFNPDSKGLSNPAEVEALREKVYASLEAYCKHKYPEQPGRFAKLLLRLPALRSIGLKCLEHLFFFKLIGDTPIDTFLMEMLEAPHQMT
Protocol: (§2) For transient transfection, HepG2 cells were seeded at the density of 40,000 cells/cm^2. […] The next day, cells were challenged with tested ligands in indicated concentrations for 5 h. […] All the other transient transfection reporter gene assays were performed with Lipofectamine® 3000 (ThermoFisher Scientific). Briefly, cells were transfected with 150 ng/well luciferase reporter gene constructs (p(DR3)3-luc, SHP-luc, p3A4-luc, pTAT-(GRE)2-TK-luc, p2B6-luc, pGL4.35[luc2P⁄9XGAL4UAS⁄Hygro]), FXRE-luc together with 100 ng/well of the corresponding full-length fragment nuclear receptor expression vectors (pSG5-hVDR, pSG5-hFXR, pSG5-hRXRα, pSG5-hPXR, CAR3 variant) or the ligand binding domains of human, pCMX-GAL4-hFXR, pCMX-GA4L-LXRα, pCMX-GA4L-LXRα, pCMX-GA4L-TRα, pCMX-GA4L-PPARα, pCMX-GAL4-PPARγ, pCMX-GAL4-PPARδ) and 30 ng/well of pRL-TK Renilla luciferase vector 24 h prior to the treatment. […] The firefly luciferase activity was measured using the Dual Luciferase® Reporter Assay System (Promega) and normalized to Renilla luciferase activity. Experiments in an agonistic mode were performed with OCA, CDCA or tested compounds (all compounds at 10 μM). […] EC50 and IC50 were calculated using GraphPad PRISM ver. […]
(§3) Data were normalized to Renilla luciferase activity and are expressed as fold activation relative to control (nontreated, NT) cells. […]

GLUTag cells [3] = experiment: GLP-1 secretion in siRNA control or Gpbar1 siRNA transfected GLUTag cells; format: cell-based, murine; details: 10 µM, 1 h
Protocol: GLUTag cells were transfected with non-targeting scrambled siRNA (siRNA control) or with the combination of siRNAs specific for Gpbar1 (Silencer® Select Pre-designed siRNA, LOT# ASO2HKN6 and ASO2HKN7, Life Technologies, Carlsbad, CA, United States) twice at 24 and 72 h after seeding using Lipofectamine RNAiMAX reagent (Life Technologies, Carlsbad, CA, United States). GLUTag cells were then treated with tested molecules at the day 4 post-seeding.
(§1) FIGURE 8 Effects of 7-alkylated derivatives of CDCA and 7-ELCA on the membrane receptor GPBAR1. […] . (B) CRE-luc activation depends on the presence of GPBAR1. (C) Effects of LCA and 7-ELCA (both at 10 µM) on intracellular generation of cAMP in differentiated NCI-H716 cells after 30 min treatment. The increase in cAMP level (ΔcAMP) is presented as the difference between cAMP concertation in the treated sample after subtraction of the cAMP in the nontreated control sample. (D) Concentration-response curves for activation of GPBAR1 by LCA and 7-ELCA. EC50 values were calculated using nonlinear fitting of concentration-response curves. […] (G) 7-ELCA (10 µM) increases GLP-1 secretion in siRNA control but not in siRNA Gpbar1 transfected GLUTag cells after 1 h treatment. GLP-1 was normalized to protein concentration and GPBAR1 mRNA expression to GAPDH mRNA. Data are presented as a fold to control nontreated (NT) samples. […]

GLUTag cells [4] = experiment: MTS viability assay; format: cell-based, murine; details: Mus musculus, 24 h, read-out: IC50, cell viability
Protocol: In addition, we examined the potential effect of 7-ethylidene-lithocholic acid (7-ELCA) on viability in murine colonic GLUTag cells. IC50 for 7-ELCA in the cell line remains above 200 µM.
Figure S1. Cell viability in GluTag cells was determined using the Cell Titer 96 Aqueous One Solution Cell Proliferation Assay (Promega) after treatment with 7-ethylidene-lithocholic acid (7-ELCA) for 24 h. Vehicle (0.1% DMSO) and background (10% SDS; v/v, toxic control) controls of cell viability were set to be 100% and 0%, respectively. IC50 is greater than 200 µM.

PPARβ/δ = PPARβ/δ (Homo sapiens, UniProt Q03181); experiment: Nuclear receptor specificity luciferase reporter assay in HepG2 cells
Sequence of PPARβ/δ (Q03181 211-439 limits assumed): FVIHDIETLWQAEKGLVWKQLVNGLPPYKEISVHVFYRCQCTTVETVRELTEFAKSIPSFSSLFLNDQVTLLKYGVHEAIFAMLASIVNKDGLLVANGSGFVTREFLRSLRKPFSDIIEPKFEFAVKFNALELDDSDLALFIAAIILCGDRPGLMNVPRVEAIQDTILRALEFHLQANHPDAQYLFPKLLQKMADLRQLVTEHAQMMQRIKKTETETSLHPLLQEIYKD

thyroid receptor (TRα) = thyroid receptor (TRα) (Homo sapiens, UniProt P10827); experiment: as above
Sequence of thyroid receptor (TRα) (P10827 163-410 isoform P10827-2 limits assumed): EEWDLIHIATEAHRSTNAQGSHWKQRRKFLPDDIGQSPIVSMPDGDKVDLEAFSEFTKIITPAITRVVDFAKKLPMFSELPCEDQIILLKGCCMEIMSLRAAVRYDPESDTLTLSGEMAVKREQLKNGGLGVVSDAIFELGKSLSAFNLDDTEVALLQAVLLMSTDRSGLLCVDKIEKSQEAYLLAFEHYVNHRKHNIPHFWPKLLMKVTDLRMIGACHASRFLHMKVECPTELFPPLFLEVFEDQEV

NCI-H716 cells = experiment: cAMP determination (cAMP-Glo) in differentiated NCI-H716 cells; format: cell-based, human; details: 10 µM, 30 min, compared to 10 µM LCA
Protocol: Differentiated NCI-H716 cells were serum-starved, washed in PBS, and the cell culture medium was changed to Hanks' Balanced Salt solution (HBSS) supplemented with 0.2% (w/v) BSA and 500 µM 3-isobutyl-1-methylxanthine and incubated for 45 min at 37°C. Cells were stimulated with tested compounds or forskolin for 30 min, and the amount of cAMP generated was measured using the cAMP-Glo™ Assay (V1501, Promega, […], United States). The changes in cAMP levels (ΔcAMP) are presented as cAMP levels in treated samples after subtraction of the cAMP levels in the nontreated (NT) samples.
as §1, with “treatment.” for “treatment. GLP-1 was normalized to protein concentration and GPBAR1 mRNA expression to GAPDH mRNA. Data are presented as a fold to control nontreated (NT) samples.”

vitamin D receptor (VDR) = vitamin D receptor (VDR) (Homo sapiens, UniProt P11473); experiment: Nuclear receptor specificity luciferase reporter assay in HepG2 cells
Sequence of vitamin D receptor (VDR) (P11473 whole entry): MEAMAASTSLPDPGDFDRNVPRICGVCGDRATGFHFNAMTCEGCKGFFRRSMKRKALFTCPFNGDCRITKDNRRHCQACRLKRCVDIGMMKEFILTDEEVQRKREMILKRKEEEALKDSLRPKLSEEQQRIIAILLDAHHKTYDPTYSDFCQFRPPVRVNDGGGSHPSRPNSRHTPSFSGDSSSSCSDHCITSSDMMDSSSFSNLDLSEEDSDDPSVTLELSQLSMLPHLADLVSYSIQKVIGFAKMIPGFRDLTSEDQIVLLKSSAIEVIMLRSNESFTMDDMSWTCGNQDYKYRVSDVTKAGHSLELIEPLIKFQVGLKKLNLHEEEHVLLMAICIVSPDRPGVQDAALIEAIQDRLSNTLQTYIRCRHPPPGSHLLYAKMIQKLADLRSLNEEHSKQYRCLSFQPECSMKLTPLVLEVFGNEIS
Protocol: as §2, §3

## C/C=C1\C[C@@H]2C[C@H](O)CC[C@]2(C)[C@H]2CC[C@]3(C)[C@@H]([C@H](C)CCC(=O)O)CC[C@H]3[C@H]12 [2a, (E)-3α-Hydroxy-7-ethylidene-5β-cholan-24-oic acid]
[1]
  GPBAR1 mRNA expression: increase GPBAR1 mRNA expression
[2]; 10 µM, with CITCO 1 µM
  antagonism of CAR activation by model ligand: did not antagonize
[2]; agonistic assay, 24 h
  activation of CAR: did not activate
GLUTag cells [3]; Gpbar1 siRNA transfected GLUTag cells
  GLP-1 secretion: did not lead to the significantly increased GLP-1 production
GLUTag cells [3]; siRNA control GLUTag cells
  GLP-1 secretion: significant increase of the GLP-1 secretion
GLUTag cells [4]
  IC50: > 200 µM
PPARβ/δ; 10 µM, with GW501516 1 µM
  antagonism of PPARβ/δ activation by model ligand: did not antagonize
PPARβ/δ; agonistic assay, 24 h
  activation of PPARβ/δ: did not activate
Thyroid receptor (TRα); 10 µM, with thyroxin 1 µM
  antagonism of TRα activation by model ligand: did not antagonize
Thyroid receptor (TRα); agonistic assay, 24 h
  activation of TRα: did not activate
NCI-H716 cells
  intracellular generation of cAMP: more significant production of cAMP
Vitamin D receptor (VDR); 10 µM, with 1α,25(OH)2vitaminD3 10 nM
  antagonism of VDR activation by model ligand: did not antagonize
Vitamin D receptor (VDR); agonistic assay, 24 h
  activation of VDR: did not activate
